From patent US9884856B2, “Crystal form of Dabrafenib mesylate and preparation method thereof” (Hangzhou Pushai Pharmaceutical Technology Co., LTD., priority 2013, dated 2018)
Where “and” joins values, the source holds several entries; their conditions need not be identical. Equal entries are not always repeated. Entries after “also recorded” stand apart in the source; their conditions may differ.

Tests used:
[1] = Decomposition temperature by TGA; type: physicochemical; conditions: methanesulfonate
Description: The thermogravimetric analysis (TGA) data are collected by TA Instruments Q500 TGA; the instrument control software is Thermal Advantage and the analysis software is Universal Analysis. Generally, take 5˜15 mg sample and place it in a platinum pan, adopt the segmental high-resolution testing mode, and under the protection of 50 mL/min dry N2, heat the sample from room temperature to 350° C. at the heating rate of 10° C./min, the weight changes of the sample during the course are recorded by TA software simultaneously.
Compare decomposition temperatures obtained by TGA tests.

[2] = Storage stability of crystal forms (XRPD before and after placement); type: physicochemical; conditions: methanesulfonate
Description: (§1) The stability is performed by comparing the storage stability and the stirring test in water on crystalline forms.
The storage stability is performed by placing the samples under a constant condition (i.e. under constant humidity or constant temperature) for a certain period of time, and then comparing their XRPDs before and after placement.

[3] = Stirring test in water (XRPD comparison); type: physicochemical; conditions: methanesulfonate; for Stirring test in water: form after stirring: 10 mg in 1 mL water; for Stability in water or aqueous system(s): general statement
Description: as §1
The stirring test in water is performed by, for each crystalline form, adding an equal amount of the sample (10 mg) to an equal amount of water (1 mL) to form a suspension, stirring the suspensions for a certain time at room temperature, and then comparing their XRPDs.

[4] = Stability during wet granulation in formulation process (XRPD); type: physicochemical; conditions: methanesulfonate; for Form of API in wet granule sample (XRPD): wet granulation with 50% aqueous ethanol, lactose monohydrate, microcrystalline cellulose
Excerpt: The stability of the Known Crystal Form I of Dabrafenib methanesulfonate and Crystal Form IV of the present invention during wet granulation in formulation process was studied.
Wet granulation experiments in the formulation process were parallel experiments. The specific steps are:
1) Blend API (the Known Crystal Form I or Crystal Form IV of the present invention), lactose (monohydrate) and microcrystalline cellulose uniformly.
2) Make the above mixture into soft materials by using appropriate amount of 50% aqueous ethanol solution, screen to produce wet granules.
3) Dry the wet granules and then granulate them, blend with polyethylene glycol 6000 uniformly and then compress them into tablets.
Characterize the Known Crystal Form I and Crystal Form IV of the present invention samples obtained from the formulation process of: (1) the sample obtained from physically mixing lactose monohydrate and microcrystalline cellulose at the ratios per the formulation; (2) the sample obtained from physically mixing of API, lactose monohydrate and microcrystalline cellulose at the ratios per the formulation; (3) the wet granule sample obtained from the wet granulation process (excluding the compressed tablets in Step 3). See XRPDs in FIG. 16 and FIG. 17.

[5] = Hygroscopicity by dynamic vapor sorption (DVS); type: physicochemical
Description: The dynamic vapor sorption analysis (DVS) data are collected by TA Instruments Q5000 TGA; the instrument control software is Thermal Advantage and the analysis software is Universal Analysis. Generally, take 1˜10 mg of the sample and place it in a platinum pan, and the weight changes of the sample are recorded during the course of the relative humidity changing from 0% to 80% and then to 0%. According to the specifics of the samples, different adsorption and desorption steps may be used.
Compare hygroscopicity in weight changes of samples between 20%-80% RH obtained by DVS tests.

[6] = Dissolution profile in ultrapure water (HPLC); type: physicochemical; conditions: for Dissolution: ultrapure water
Description: The analysis data of high performance liquid chromatography (HPLC) are collected by Agilent 1260 with the chemical working station of B.04. The corresponding HPLC parameters in this research are: chromatographic column SB-C18 250×4.6 mm 5 μm; column temperature 35° C.; flow rate 0.6 mL/min; flow phase as shown below; wavelength 254 nm; sample inject volume 20 μl; operation time 30 min.
The comparison of dissolution profiles is performed by the following procedures: place about 6 mg the sample in a […], add 15 mL ultrapure water, and then seal the vial. A suspension is obtained from sonication with a working power of 40 Khz at room temperature, then take 1 mL of the suspension at 10 min, 30 min, 2 hr and 6 hr, respectively; filter it with 0.45 μm organic filter membrane to, take the filtrate to be measured by HPLC; stir the remaining suspension for 16 hr at room temperature, and then filter it with 0.45 μm organic filter membrane, take the filtrate to be measured by HPLC. FIG. 15 is the comparison plot of dissolution profiles of Crystal Form IV and the Known Crystal Form I in Experimental Example 1 (▴ refers to Crystal Form IV, ▮ refers to the Known Crystal Form I).

[7] = test system: one or more Raf-family kinases; conditions: disclosed in WO2009/137391 and CN200980126781.6; cited from earlier work
[8] = test system: BRAFV600E-mutan melanoma; conditions: patients with BRAFV600E-mutan melanoma; cited from earlier work
[9] = stored for 1 month at room temperature - 97% RH
[10] = stored for 1 month at room temperature
[11] = stirred 15 min at room temperature
[12] = 6 hours + 16 hours stirring at room temperature, methanesulfonate
[13] = sonication, room temperature, 10 minutes, methanesulfonate
[14] = sonication, room temperature, 30 minutes, methanesulfonate
[15] = sonication, room temperature, 2 hours, methanesulfonate
[16] = sonication, room temperature, 6 hours, methanesulfonate

Row | Compound | Storage stability (crystal form) [2, 9] | Storage stability (crystal form) [2, 10] | Stirring test in water: form after stirring [3, 11] | Stability in water or aqueous system(s) [3] | Stability in the wet granulation process [4] | Form of API in wet granule sample (XRPD) [4] | Dissolution [6, 12] | Dissolution [6, 13] | Dissolution [6, 14] | Dissolution [6, 15] | Dissolution [6, 16] | further results
1 | CC(C)(C)c1nc(-c2cccc(NS(=O)(=O)c3c(F)cccc3F)c2F)c(-c2ccnc(N)n2)s1 [Crystal Form II, N-[3-[5-(2-amino-4-pyrimidinyl)-2-(tert-butyl)-thiazol-4-yl]-2-fluorophenyl]-2,6-difluorobenzene sulfonamide methanesulfonate] | – | – | – | – | – | – | – | – | – | – | – | Decomposition temperature [1]: 287 °C
2 | CC(C)(C)c1nc(-c2cccc(NS(=O)(=O)c3c(F)cccc3F)c2F)c(-c2ccnc(N)n2)s1 [Crystal Form IV, N-[3-[5-(2-amino-4-pyrimidinyl)-2-(tert-butyl)-thiazol-4-yl]-2-fluorophenyl]-2,6-difluorobenzene sulfonamide methanesulfonate] | remained unchanged and stable and 97% RH, respectively, the crystal forms remained unchanged. | remained unchanged and stable and 97% RH, respectively, the crystal forms remained unchanged. | still remained as methanesulfonate; also recorded: still remains its Crystal Form IV of methanesulfonate; also recorded: remained as methanesulfonate and after | better stability in water or aqueous system(s) | stable | remained as Crystal Form IV | 0.000178 mg/mL | 0.000532 mg/mL | 0.000303 mg/mL | 0.000376 mg/mL | 0.000488 mg/mL | Stirring test in water: form after stirring ([3]; stirred overnight at room temperature): converted to its free base; also recorded: converts to its free base monohydrate; also recorded: free base (FIG. 14); Weight change (dynamic vapor sorption) ([5]; between 20% RH-80% RH): 2.0%; Dissolution rate / dissolution quantity compared with the Known Crystal Form I ([6]; 0~22 h, any test point, methanesulfonate): higher than that of the Known Crystal Form I at any test point; also recorded: larger than that of the Known Crystal Form I at any test point; Time to the end point in water during dissolution ([6]; compared with the Known Crystal Form I): Form IV is shorter than that of the Known Crystal Form I.
3 | CC(C)(C)c1nc(-c2cccc(NS(=O)(=O)c3c(F)cccc3F)c2F)c(-c2ccnc(N)n2)s1 [Dabrafenib methanesulfonate, N-[3-[5-(2-amino-4-pyrimidinyl)-2-(tert-butyl)-thiazol-4-yl]-2-fluorophenyl]-2,6-difluorobenzene sulfonamide methanesulfonate] | – | – | – | – | – | – | – | – | – | – | – | Inhibitory effects on Raf-family kinases [7]: exhibited inhibitory effects
4 | CC(C)(C)c1nc(-c2cccc(NS(=O)(=O)c3c(F)cccc3F)c2F)c(-c2ccnc(N)n2)s1 [Dabrafenib] | – | – | – | – | – | – | – | – | – | – | – | Safety profile [8]: acceptable safety profile; Therapeutic activity [8]: has therapeutic activities
5 | CC(C)(C)c1nc(-c2cccc(NS(=O)(=O)c3c(F)cccc3F)c2F)c(-c2ccnc(N)n2)s1 [Known Crystal Form I, N-[3-[5-(2-amino-4-pyrimidinyl)-2-(tert-butyl)-thiazol-4-yl]-2-fluorophenyl]-2,6-difluorobenzene sulfonamide methanesulfonate, reference compound] | remained unchanged and 97% RH, respectively, the crystal forms remained unchanged. | remained unchanged and 97% RH, respectively, the crystal forms remained unchanged. | consistent with the above-mentioned Dabrafenib free base hydrate; also recorded: converted to its free base; also recorded: converts to its free base monohydrate; also recorded: min, it converted to the free | readily converts to free base | unstable | partially or totally converted to Dabrafenib free base hydrate | 7.48e-05 mg/mL | 0.00012 mg/mL | 7.23e-05 mg/mL | 9.28e-05 mg/mL | 8.88e-05 mg/mL | Form stability under humidity ([5]; 25° C. and 20-80% RH, methanesulfonate): stable at 25 °C and 20-; Hygroscopicity ([5]; DVS): Non-hygroscopic; the form is
